The source of these data is US20250154123A1, “COOLING COMPOUNDS AND COMPOSITIONS” (V. MANE FILS, priority 2022, published 2025).

Each structure is given as a SMILES string.

The target in the first experiment is T1, hTRPM8 (Homo sapiens, UniProt Q7Z2W7).
T1 construct: expressed in transfected cells; host or cells: CHO-KJ cells [sic]
T1 sequence (Q7Z2W7 whole entry): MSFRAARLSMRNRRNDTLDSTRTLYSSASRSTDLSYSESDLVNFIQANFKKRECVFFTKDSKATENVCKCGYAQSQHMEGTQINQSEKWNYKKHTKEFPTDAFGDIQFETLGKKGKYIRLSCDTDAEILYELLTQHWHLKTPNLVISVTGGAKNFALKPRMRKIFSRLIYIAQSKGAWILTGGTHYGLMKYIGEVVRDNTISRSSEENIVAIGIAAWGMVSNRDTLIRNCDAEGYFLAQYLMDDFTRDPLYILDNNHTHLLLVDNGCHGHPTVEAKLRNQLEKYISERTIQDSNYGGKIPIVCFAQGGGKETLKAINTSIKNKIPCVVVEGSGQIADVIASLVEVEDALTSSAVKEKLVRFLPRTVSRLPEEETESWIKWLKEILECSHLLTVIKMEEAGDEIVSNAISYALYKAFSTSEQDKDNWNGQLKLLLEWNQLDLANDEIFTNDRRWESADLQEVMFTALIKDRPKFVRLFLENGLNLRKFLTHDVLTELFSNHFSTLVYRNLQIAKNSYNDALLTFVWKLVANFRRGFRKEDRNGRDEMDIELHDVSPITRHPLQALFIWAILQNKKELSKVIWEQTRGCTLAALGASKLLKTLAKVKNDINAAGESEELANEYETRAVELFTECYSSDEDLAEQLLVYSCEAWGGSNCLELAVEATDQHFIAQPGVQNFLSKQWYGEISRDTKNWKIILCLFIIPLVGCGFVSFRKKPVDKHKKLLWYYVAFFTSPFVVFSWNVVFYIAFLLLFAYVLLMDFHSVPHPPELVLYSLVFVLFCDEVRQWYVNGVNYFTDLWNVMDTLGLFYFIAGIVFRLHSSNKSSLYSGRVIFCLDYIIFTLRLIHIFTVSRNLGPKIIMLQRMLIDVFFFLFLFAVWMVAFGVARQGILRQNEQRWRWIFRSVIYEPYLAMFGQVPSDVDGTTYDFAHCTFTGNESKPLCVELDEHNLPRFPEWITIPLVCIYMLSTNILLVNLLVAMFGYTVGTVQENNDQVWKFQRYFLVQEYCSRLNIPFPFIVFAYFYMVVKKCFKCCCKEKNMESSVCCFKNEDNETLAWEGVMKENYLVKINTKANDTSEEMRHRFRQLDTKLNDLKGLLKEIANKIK
Briefly: Secondary in vitro screening on hTRPM8 at 5 μM versus WS-3. The class given is cell-based. Conditions: WS3 as reference compound. As to the method:
(§1) The compounds were evaluated in vitro on CHO-KJ cells expressing the gene encoding the hTRPM8 ion channel (Table 1). Channel activation is determined by fluorometric measurement of […] calcium using FLUO-8. The activity of the compounds was measured relative to icilin (known hTRPM8 agonist).
The compounds 1 to 40 were tested on hTRPM8 at 5 μM using WS3 as the reference compound (Table 2).
For the compound `CC(C)[C@@H]1CC[C@@H](C)CC1(C=O)C=O` [Compound 8, (2S,5R)-2-isopropyl-5-methylcyclohexane-1,1-dicarbaldehyde], the activation at 5 µM was 6%. For `CC(C)[C@@H]1CC[C@@H](C)CC12COC(c1ccccn1)OC2` (stereo partly drawn) [Compound 23, 2-((7S,10R)-7-isopropyl-10-methyl-2,4-dioxaspiro[5.5]undecan-3-yl) pyridine], the activation at 5 µM stood at 4%. On the same count and under the same terms, the result for `CCCC1OCC2(CO1)C[C@H](C)CC[C@H]2C(C)C` (stereo partly drawn) [Compound 14, (7S,1OR)-7-isopropyl-10-methyl-3-propyl-2,4-dioxaspiro[5.5]undecane] reads -1%; that for `CC(C)[C@@H]1CC[C@@H](C)CC12COC(C)(c1ccccc1)OC2` (stereo partly drawn) [Compound 22, (7S,1OR)-7-isopropyl-3,10-dimethyl-3-phenyl-2,4-dioxaspiro[5.5]undecane], 13%; that for `CC(C)[C@@H]1CC[C@@H](C)CC1(C(C)O)C(C)O` (stereo partly drawn) [Compound 34, 1,1′-((2S,5R)-2-isopropyl-5-methylcyclohexane-1,1-diyl)bis(ethan-1-ol)], 21%. Consider `CC(C)[C@@H]1CC[C@@H](C)CC12COC1(C[C@H](C)CC[C@H]1C(C)C)OC2` (stereo partly drawn) [Compound 7, (1S,4R,10S,13R)-1,10-diisopropyl-4,13-dimethyl-7,16-dioxadispiro [5.2.5^90.2^6]hexadecane], for which the activation at 5 µM was 0%. The same measure, in the same setting: the result for `CC(C)[C@@H]1CC[C@@H](C)C[C@H]1C(CO)CO` [Compound 37, 2-((1R,2S,5R)-2-isopropyl-5-methylcyclohexyl)propane-1,3-diol] reads 65%; that for `CCC(C)C1CCCCC12COC(C)OC2` (stereo not drawn) [Compound 31, 7-(sec-butyl)-3-methyl-2,4-dioxaspiro[5.5]undecane], -2%; that for `CCC1OCC2(CO1)C[C@H](C)CC[C@H]2C(C)C` (stereo partly drawn) [Compound 4, (7S,1OR)-3-ethyl-7-isopropyl-10-methyl-2,4-dioxaspiro[5.5]undecane], -1%. Regarding `CC1OCC2(CO1)CC(C)(C)CCC2C(C)C` (stereo not drawn) [Compound 33, 7-isopropyl-3,10,10-trimethyl-2,4-dioxaspiro[5.5]undecane], the activation at 5 µM was found to be 1%. For the compound `CC(C)C1OCC2(CO1)C[C@H](C)CC[C@H]2C(C)C` (stereo partly drawn) [Compound 15, (7S,1OR)-3,7-diisopropyl-10-methyl-2,4-dioxaspiro[5.5]undecane], the activation at 5 µM is -6%.

Take `CC(C)C1CCC(C)(C)CC1(CO)CO` (single isomer, unassigned) [Compound 30, (2-isopropyl-5,5-dimethylcyclohexane-1,1-diyl)dimethanol]: the activation at 5 µM came to 71%.

As for `CCOC(=O)C1OCC2(CO1)C[C@H](C)CC[C@H]2C(C)C` (stereo partly drawn) [Compound 28, Ethyl (7S,1OR)-7-isopropyl-10-methyl-2,4-dioxaspiro[5.5]undecane-3-carboxylate], the activation at 5 µM was 5%. For `CC(C)[C@@H]1CC[C@@H](C)CC1(COC(=O)CCC(=O)O)COC(=O)CCC(=O)O` [Compound 21, 4,4′-((((2S,5R)-2-isopropyl-5-methylcyclohexane-1,1-diyl)bis (methylene))bis(oxy))bis(4-oxobutanoic acid)], the activation at 5 µM is -2%. For `CCC(C)C1CCCCC1(CO)CO` (stereo not drawn) [Compound 27, (2-(sec-butyl)cyclohexane-1,1-diyl)dimethanol], the activation at 5 µM worked out at 40%. With `CC(C)[C@@H]1CC[C@@H](C)CC12COC(c1ccccc1)OC2` (stereo partly drawn) [Compound 18, (7S,1OR)-7-isopropyl-10-methyl-3-phenyl-2,4-dioxaspiro[5.5]undecane], the activation at 5 µM came to 3%. With `CSCCC1OCC2(CO1)C[C@H](C)CC[C@H]2C(C)C` (stereo partly drawn) [Compound 25, (7S,1OR)-7-isopropyl-10-methyl-3-(2-(methylthio)ethyl)-2,4-dioxaspiro [5.5]undecane], the activation at 5 µM was 3%.

Consider `CC(=O)OCC1(COC(C)=O)C[C@H](C)CC[C@H]1C(C)C` [Compound 9, ((2S,5R)-2-isopropyl-5-methylcyclohexane-1,1-diyl)bis(methylene) diacetate], for which the activation at 5 µM was determined as 0%. Take `CCC1(C)OCC2(CO1)C[C@H](C)CC[C@H]2C(C)C` (stereo partly drawn) [Compound 13, (7S,1OR)-3-ethyl-7-isopropyl-3,10-dimethyl-2,4-dioxaspiro[5.5]undecane]: the activation at 5 µM worked out at 1%.

For the compound `CC1CC(C)(C)CC2(COC(C)(C)OC2)C1` (stereo not drawn) [Compound 12, 3,3,8,8,10-pentamethyl-2,4-dioxaspiro[5.5]undecane], the activation at 5 µM was 1%.

In the case of `COCC1(COC)C[C@H](C)CC[C@H]1C(C)C` [Compound 17, (2S,5R)-2-isopropyl-1,1-bis(methoxymethyl)-5-methylcyclohexane], the activation at 5 µM stood at 1%. Turning to `CCC(C)C1OCC2(CO1)C[C@H](C)CC[C@H]2C(C)C` (stereo partly drawn) [Compound 16, (7S,1OR)-3-(sec-butyl)-7-isopropyl-10-methyl-2,4-dioxaspiro[5.5]undecane], the activation at 5 µM is -1%. `CC1(C)CCCC(CO)(CO)C1` [Compound 20, (3,3-dimethylcyclohexane-1,1-diyl)dimethanol]: the activation at 5 µM was determined as 4%. On the same count and under the same terms, the result for `CC(C)[C@@H]1CC[C@@H](C)CC12COC(c1cccs1)OC2` (stereo partly drawn) [Compound 24, (7S,1OR)-7-isopropyl-10-methyl-3-(thiophen-2-yl)-2,4-dioxaspiro[5.5]undecane] reads 3%. For `CC1CC(C)(C)CC2(COC(C)OC2)C1` (stereo not drawn) [Compound 11, 3,8,8,10-tetramethyl-2,4-dioxaspiro[5.5]undecane], the activation at 5 µM turned out to be 3%.

As to `CC1OCC2(CO1)C[C@H](C)CC[C@H]2C(C)C` (stereo partly drawn) [Compound 2, (7S,1OR)-7-isopropyl-3,10-dimethyl-2,4-dioxaspiro[5.5]undecane], the activation at 5 µM stood at 3%. As for `CC(C)[C@@H]1CC[C@@H](C)CC1(CO)COCc1ccccc1` (stereo partly drawn) [Compound 38, ((2S,5R)-1-((benzyloxy)methyl)-2-isopropyl-5-methylcyclohexyl) methanol], the activation at 5 µM was 8%. Regarding `CC1(C)CC(C)(C)CC(CO)(CO)C1` [Compound 40, (3,3,5,5-tetramethylcyclohexane-1,1-diyl)dimethanol], the activation at 5 µM came out at 8%. As to `CC1CC(C)(C)CC(CO)(CO)C1` (stereo not drawn) [Compound 10, (3,3,5-trimethylcyclohexane-1,1-diyl)dimethanol], the activation at 5 µM came out at 10%. Consider `C=C(C)[C@@H]1CC[C@@H](C)C[C@H]1C(CO)CO` [Compound 35, 2-((1R,2R,5R)-5-methyl-2-(prop-1-en-2-yl)cyclohexyl)propane-1,3-diol], for which the activation at 5 µM turned out to be 14%. Regarding `CC(C)[C@@H]1CC[C@@H](C)CC1(CO)C(=O)O` (stereo partly drawn) [Compound 39, (2S,5R)-1-(hydroxymethyl)-2-isopropyl-5-methylcyclohexane-1-carboxylic acid], the activation at 5 µM was determined as 16%.

`CC1OCC2(CCCC(C)(C)C2)CO1` (stereo not drawn) [Compound 26, 3,8,8-trimethyl-2,4-dioxaspiro[5.5]undecane]: the activation at 5 µM turned out to be 3%. For the compound `CC(C)[C@@H]1CC[C@@H](C)CC1(CCO)CCO` [Compound 29, 2,2′-((2S,5R)-2-isopropyl-5-methylcyclohexane-1,1-diyl)bis(ethan-1-ol)], the activation at 5 µM stood at 26%.

Consider `CC(=O)OCC1(CO)C[C@H](C)CC[C@H]1C(C)C` (stereo partly drawn) [Compound 32, ((2S,5R)-1-(hydroxymethyl)-2-isopropyl-5-methylcyclohexyl)methyl acetate], for which the activation at 5 µM was 4%.

For the compound `C=C(C)[C@@H]1CC[C@@H](C)C[C@H]1C1COC(C)OC1` (stereo partly drawn) [Compound 36, 2-methyl-5-((1R,2R,5R)-5-methyl-2-(prop-1-en-2-yl)cyclohexyl)-1,3-dioxane], the activation at 5 µM is 6%. Regarding `CC(C)[C@@H]1CC[C@@H](C)CC12COCOC2` [Compound 6, (7S,1OR)-7-isopropyl-10-methyl-2,4-dioxaspiro[5.5]undecane], the activation at 5 µM was 3%.

The next experiment has as its target T1, hTRPM8. Briefly: EC50 measurement on hTRPM8 (response curve). The class given is cell-based. Conditions: hTRPM8, response curve. The method, then: as §1
A response curve was developed for compounds 1, 3, 5 and 37 which made it possible to determine the EC50 (half maximal effective concentration) values on hTRPM8 and compare them with the EC50 values of the comparative compounds (Table 3).
With `CC(C)[C@@H]1CC[C@@H](C)C[C@H]1C(CO)CO` [Compound 37, 2-((1R,2S,5R)-2-isopropyl-5-methylcyclohexyl)propane-1,3-diol], the EC50 – broadly, the concentration needed to bring the measured effect to its halfway point – is 70 µM. Take `CCOC(=O)CNC(=O)[C@@H]1C[C@H](C)CC[C@H]1C(C)C` [WS-5 ™, reference compound]: the midpoint of the response, the EC50, lay at 1 µM. On the same count and under the same terms, the result for `CCNC(=O)C1CC(C)CCC1C(C)C` (stereo not drawn) [WS-3 ™, reference compound] reads 8 µM.

The next experiment deals with T2, hTRPM8 ion channel (Homo sapiens, UniProt Q7Z2W7).
T2 construct: expressed in transfected cells; host or cells: CHO-KJ cells [sic]
T2 sequence (Q7Z2W7 whole entry): as above
Briefly: Primary in vitro screening on hTRPM8 (CHO-KJ cells, FLUO-8 calcium fluorometry, relative to icilin). The class given is cell-based. Conditions: CHO-KJ cells expressing hTRPM8. The method, then: as §1
On to `CCOC(=O)CNC(=O)[C@@H]1C[C@H](C)CC[C@H]1C(C)C` [WS-5 ™, reference compound], for which the “% activation vs iciline” value amounted to 73%. `CC(C)[C@@H]1CC[C@@H](C)C[C@H]1OC(=O)CCC(=O)O` [Physcool ™, reference compound]: the “% activation vs iciline” value is -2%.

Staying with this experiment, now noted: concentration 101 μM; CHO-KJ cells expressing hTRPM8.
As to `CCC1OCC2(CO1)C[C@H](C)CC[C@H]2C(C)C` (stereo partly drawn) [Compound 4, (7S,1OR)-3-ethyl-7-isopropyl-10-methyl-2,4-dioxaspiro[5.5]undecane], the “% activation vs iciline” value amounted to 39%.

The experiment is the same for the next values; noted with them: concentration 104 μM; CHO-KJ cells expressing hTRPM8.
For the compound `CC(C)[C@@H]1CC[C@@H](C)CC12COCOC2` [Compound 6, (7S,1OR)-7-isopropyl-10-methyl-2,4-dioxaspiro[5.5]undecane], the “% activation vs iciline” value was found to be 32%.

The experiment is the same for the next values; noted with them: concentration 109 μM; CHO-KJ cells expressing hTRPM8.
In the case of `CC1OCC2(CO1)C[C@H](C)CC[C@H]2C(C)C` (stereo partly drawn) [Compound 2, (7S,1OR)-7-isopropyl-3,10-dimethyl-2,4-dioxaspiro[5.5]undecane], the “% activation vs iciline” value is recorded as 26%.

The same experiment, now with this note: concentration 114 μM; CHO-KJ cells expressing hTRPM8.
Regarding `CC(C)[C@@H]1CC[C@@H](C)C[C@H]1O` [l-menthol, reference compound], the “% activation vs iciline” value is 78%.

Staying with this experiment, now noted: concentration 116 μM; CHO-KJ cells expressing hTRPM8.
Regarding `CC1CCC(C(C)C)C(OC(=O)C(C)O)C1` (stereo not drawn) [menthyl lactate, reference compound], the “% activation vs iciline” value came to 53%.

Staying with this experiment, now noted: concentration 119 μM; CHO-KJ cells expressing hTRPM8.
On to `CCNC(=O)C1CC(C)CCC1C(C)C` (stereo not drawn) [WS-3 ™, reference compound], for which the “% activation vs iciline” value turned out to be 76%.

Staying with this experiment, now noted: concentration 123 μM; CHO-KJ cells expressing hTRPM8.
On to `C=C(C)[C@@H]1CC[C@@H](C)C[C@H]1O` [l-isopulegol, reference compound], for which the “% activation vs iciline” value is reported as 51%.
